A word on the AUC(0-t): it is the area under the concentration-time curve up to a stated or last time point. A lower AUC(0-t) goes with low exposure. As usually defined, the clearance is the volume of plasma or blood freed of the substance per unit of time. Read a low clearance as inefficient removal. The half-life is how long it takes for the measured level to halve. Low values mean rapid decline, high ones slow decline. As a reminder, the Cmax is the maximum level reached in the sampled fluid or tissue. The term Tmax denotes the time at which the peak concentration occurs. The term bioavailability denotes dose-corrected exposure relative to a reference, in per cent. As a reminder, the IC50 is the midpoint of a concentration-inhibition curve.

This is an account of results in patent US20250154134A1, “COMPOUND AS FAK INHIBITOR AND USE THEREOF” (WIGEN BIOMEDICINE TECHNOLOGY (SHANGHAI) CO., LTD., priority 2022, published 2025).

A short description of series [1]: In vivo pharmacokinetic experiment in CD-1 mice. Particulars: mouse, plasma, CD-1 female mice; for Vd: read-out: Vdss. The protocol:
[…] The mice were fasted for at least 12 h before the administration and given food 4 h after the administration, and they were given ad libitum access to water during the experiment.
On the day of the experiment, animals in the intravenous group were given the corresponding compound by single injection via the tail vein at an administration volume of 10 mL/kg; and animals in the oral group were given the corresponding compound by single intragastric injection at an administration volume of 10 mL/kg. The animals were weighed before administration, and the administration volume was calculated according to the body weight. The sample collection time points were 0.083 h, 0.167 h, 0.5 h, 1 h, 2 h, 4 h, 8 h, and 24 h. About 200 μL of whole blood was collected through the orbital venous plexus at each time point and used to prepare plasma for concentration determination by high-performance liquid chromatography-tandem mass spectrometry (LC-MS/MS). The plasma concentrations were processed using a non-compartmental model of Winnolin pharmacokinetic software, and the pharmacokinetic parameters were calculated using a linear-log trapezoidal method.

Series [2] deals with PC3 cells. Put plainly: Inhibition of PC3 cell low adsorption (adherent cell count, 4 h). The class given is cell-based. Particulars: Homo sapiens, PC-3; 4 h treatment; read-out: IC50 against PC3 cell low adsorption. The protocol:
PC3 cells were seeded at 8000 cells/well. 4 h after the cells were treated with a compound, the number of adherent cells was counted. The inhibition percentage and IC50 of the compound were calculated compared to the DMSO group.

The subject of series [3] is Human prostate cancer PC3 cells. Put plainly: In vivo efficacy, PC3 xenograft in nude mice. Particulars: PC-3 model, 25 mg/kg, QD (21 days), PO. Details: species or system mouse. On the procedure:
The groups were as follows: 1) a solvent control group, 8 mice; and 2) a control compound group and a test compound group, 8 mice each. The mice in the solvent control group were intragastrically administered 0.5% CMC-Na twice a day; the mice in the compound groups were intragastrically administered 0.5% MC-Tween-80 suspension once a day. On Tuesday and Thursday each week, tumor volumes and body weight of the mice were measured, and the nude mice were sacrificed on day 21 after the administration. […] The toxicity of the compounds was evaluated according to the body weight of the mice.

For series [4], the system named is PC3 cells. As to the kind of experiment: PC3 cell proliferation, 3D activity assay (3D culture, 14 days). The series is classed as cell-based, human. Particulars: Homo sapiens, PC-3, 336 h, read-out: 3D inhibitory activity against PC3 cells IC50.
Series [5] deals with Mouse colon cancer MC38 cells. Put plainly: In vivo efficacy, MC38 model in BALB/c mice, single drug and PD-1 combination. Particulars: MC-38 model, single drug, 50 mg/kg, QD (21 days), PO. The protocol:
Female BALB/c mice (aged 6 weeks, 18-22 g) were provided by Vital River Laboratory Animal Technology Co., Ltd. (China) and used one week after quarantine and acclimation. All animals were kept in a room at 23±2° C. with a relative humidity of 50±5%, artificial lighting was provided from 08:00 to 20:00 every day, and the air was exchanged 13-18 times per hour.
After being subcultured, the cells were collected when they reached the desired amount. The BALB/c mice were subcutaneously injected with 1×10^6 MC38 cells on the right side to form tumors. […] Administration was then started. Tumor volumes were measured with a caliper on day 3, day 7, day 10, day 14, day 17, and day 21 after the administration.
The toxicity of the compounds was evaluated according to the body weight and state of the mice.

In series [6] the test system is Human pancreatic cancer Mia PaCa-2 cells. As to the kind of experiment: In vivo efficacy, Mia PaCa-2 xenograft in nude mice. Particulars: MiaPaCa-2 model, 25 mg/kg PO QD 21 days. Details: species or system mouse. The protocol: The groups were as follows: 1) a solvent control group, 8 mice; and 2) a control compound group and a test compound group, 8 mice each. The mice in the solvent control group were intragastrically administered 0.5% CMC-Na twice a day; the mice in the compound groups were intragastrically administered 0.50% MC-Tween-80 suspension once a day. On Tuesday and Thursday each week, tumor volumes and body weight of the mice were measured, and the nude mice were sacrificed on day 21 after the administration. […] The toxicity of the compounds was evaluated according to the body weight of the mice.

The target in another series is FAK recombinant protein (Homo sapiens (Human), UniProt Q05397). As to the kind of experiment: Inhibitory activity against FAK enzyme (HTRF, TK substrate). The series is classed as biochemical. On the procedure:
A compound serially diluted with DMSO was mixed with a FAK recombinant protein. After the mixture was left to stand at room temperature for 10 min, a biotin-labeled TK substrate (TK) and ATP were added. […] The inhibition percentage and IC50 of the compound were calculated compared to the DMSO control group.
In general terms: TR-FRET usually uses a lanthanide donor and a delayed reading to cut background.

For series [7], the system named is PC3 cells. As to the kind of experiment: PC3 cell proliferation, 2D activity assay (Cell Titer-Lumi, 72 h). The series is classed as cell-based, human. Particulars: Homo sapiens, PC-3, read-out: 2D inhibitory activity against PC3 cells IC50.
Series [8] deals with phosphorylation at the FAK 397 site. As to the kind of experiment: Inhibition of Y397 phosphorylation in PC3 cells (ELISA). The class given is cell-based. Particulars: Homo sapiens, PC-3, 3 h treatment, read-out: IC50 against Y397 phosphorylation. On the procedure: PC3 cells were seeded at 8000 cells/well. […] The inhibition percentage and IC50 of the compound were calculated compared to the DMSO group.

Structures are written as SMILES.

Chain of FAK recombinant protein (Q05397 whole entry): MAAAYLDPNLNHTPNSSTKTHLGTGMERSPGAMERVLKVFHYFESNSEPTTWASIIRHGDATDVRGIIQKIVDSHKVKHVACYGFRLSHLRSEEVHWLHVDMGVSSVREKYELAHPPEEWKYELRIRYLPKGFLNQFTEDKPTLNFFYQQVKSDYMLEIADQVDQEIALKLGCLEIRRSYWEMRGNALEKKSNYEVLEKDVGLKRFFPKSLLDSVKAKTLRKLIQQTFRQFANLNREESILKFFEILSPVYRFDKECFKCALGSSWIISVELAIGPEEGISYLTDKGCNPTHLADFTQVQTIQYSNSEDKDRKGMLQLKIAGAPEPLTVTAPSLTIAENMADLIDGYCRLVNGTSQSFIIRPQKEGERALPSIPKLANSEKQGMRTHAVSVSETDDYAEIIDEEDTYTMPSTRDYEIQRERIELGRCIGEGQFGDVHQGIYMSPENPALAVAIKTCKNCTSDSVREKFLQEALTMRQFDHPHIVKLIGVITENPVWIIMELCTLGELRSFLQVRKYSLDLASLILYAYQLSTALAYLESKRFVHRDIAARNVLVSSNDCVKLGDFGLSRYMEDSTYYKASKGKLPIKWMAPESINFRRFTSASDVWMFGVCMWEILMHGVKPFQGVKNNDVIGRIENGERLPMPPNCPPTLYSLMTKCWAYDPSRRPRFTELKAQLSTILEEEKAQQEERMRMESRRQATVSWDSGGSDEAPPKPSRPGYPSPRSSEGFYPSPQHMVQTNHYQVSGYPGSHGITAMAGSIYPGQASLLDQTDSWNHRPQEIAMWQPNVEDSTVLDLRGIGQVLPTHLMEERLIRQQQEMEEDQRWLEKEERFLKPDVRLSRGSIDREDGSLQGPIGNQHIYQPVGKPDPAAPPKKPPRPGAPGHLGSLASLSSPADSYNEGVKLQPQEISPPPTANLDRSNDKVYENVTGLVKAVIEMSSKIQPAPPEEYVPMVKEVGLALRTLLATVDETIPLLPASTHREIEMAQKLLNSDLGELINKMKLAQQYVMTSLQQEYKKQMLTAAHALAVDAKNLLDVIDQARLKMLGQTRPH

Turning to `COc1cc(N2CC3(CCN(C)CC3)C2)ccc1Nc1ncc(C(F)(F)F)c(Oc2cccc3c2C(=O)N(C)C32CC2)n1` [Compound 79], the AUC(0-t) worked out at 883 ng·h/mL in series [1] (iv, injection (1 mg/kg)) and 1760 ng·h/mL in [1] (oral administration, 5 mg/kg). This molecule returned a clearance in series [1] (iv, injection (1 mg/kg)) of 18.9 mL/min/kg. Further, the half-life in [1] (iv, injection (1 mg/kg)) was 3.48 h; in series [1] (oral administration, 5 mg/kg), 3.06 h. In series [1] (iv, injection (1 mg/kg)), the Vd came to 5.14 L/kg. The molecule also came in with a Cmax in [1] (oral administration, 5 mg/kg) of 201 ng/mL. Further, the Tmax in series [1] (oral administration, 5 mg/kg) was 4 h. Besides, the bioavailability in series [1] (oral administration, 5 mg/kg) came to 40%. Also, the IC50 was 1.09 nM in the series on PC3 cells [2], 0.32 nM with PC3 cells [4], under 20 nM at FAK recombinant protein and over 10000 nM with PC3 cells [7]. Further, the “TGI(%)” value amounted to 88.33% in [3], 69.21% in series [5] and 89.35% in series [6].

In the case of `COc1cc(N2CC3(CCN(C)CC3)C2)ccc1Nc1ncc(Cl)c(Oc2cccc3c2C(=O)N(C)C32CC2)n1` [Compound 136, 4′-((5-chloro-2-((2-methoxy-4-(7-methyl-2,7-diazaspiro[3.5]nonan-2-yl)phenyl)amino)pyrimidin-4-yl)oxy)-2′-methylspiro[cyclopropane-1,1′-isoindolin]-3′-one], the IC50 in [8] was 0.22 nM; with PC3 cells [2], 1.16 nM; with PC3 cells [4], 0.6 nM; on FAK recombinant protein, under 20 nM; in the series on PC3 cells [7], over 10000 nM. The AUC(0-t) amounted to 1110 ng·h/mL in series [1] (iv, injection (1 mg/kg)) and 8910 ng·h/mL in series [1] (oral administration (10 mg/kg)). This molecule also had a clearance in series [1] (iv, injection (1 mg/kg)) of 15 mL/min/kg. The half-life in series [1] (iv, injection (1 mg/kg)) is 3.31 h; in series [1] (oral administration (10 mg/kg)) it was 2.2 h. Besides, the Vd in series [1] (iv, injection (1 mg/kg)) came out at 4.15 L/kg. Moreover, the highest level in series [1] (oral administration (10 mg/kg)) (Cmax) was 907 ng/mL. Besides, the Tmax in [1] (oral administration (10 mg/kg)) is 2 h. In series [1] (oral administration (10 mg/kg)), this molecule returned a bioavailability of 80.2%. Further, the results for the “TGI(%)” value in [3], in series [5] and in [6] were 76.67%, 32.53% and 89.46%, respectively.

With `COc1cc(N2CC3(CCN(C)CC3)C2)c(F)cc1Nc1ncc(C(F)(F)F)c(Oc2cccc3c2C(=O)N(C)C32CC2)n1` [Compound 120, 4′-((2-((5-fluoro-2-methoxy-4-(7-methyl-2,7-diazaspiro[3.5]nonan-2-yl)phenyl)amino)-5-(trifluoromethyl)pyrimidin-4-yl)oxy)-2′-methylspiro[cyclopropane-1,1′-isoindolin]-3′-one], the IC50 in [8] was under 0.01 nM. Also, in [1] (iv, injection (1 mg/kg)), the AUC(0-t) stood at 850 ng·h/mL, the clearance came out at 19.6 mL/min/kg, the half-life is 4.69 h and the Vd amounted to 6.15 L/kg. For the same molecule, in series [1] (oral administration (10 mg/kg)), the AUC(0-t) turned out to be 6120 ng·h/mL, the peak level (Cmax) was 522 ng/mL, the Tmax stood at 4 h and the bioavailability came out at 72%. In series [1] (oral administration (10 mg/kg)), the half-life is 5.26 h. In the series on PC3 cells [2], the IC50 is 1.46 nM. Moreover, in series [3], the “TGI(%)” value is recorded as 90.83%. Further, the IC50 in the series on PC3 cells [4] was 0.46 nM. Also, the “TGI(%)” value in series [5] was found to be 66.33%. Besides, the IC50 at FAK recombinant protein was under 20 nM. The IC50 in the series on PC3 cells [7] is over 2000 nM.
